The source of these data is patent US3966715A, “Herbicidal agents” (Bayer Aktiengesellschaft, priority 1966, dated 1976).

What all share (format): in vivo
Holding throughout (conditions): three weeks

Assay [1] has as its system Oats. The assay is described as follows: Pre-emergence test, oats. As for the experimental part: (§1) Solvent: 5 parts by weight acetone
(§2) 1 part by weight benzyloxypolyglycol ether
(§3) To produce a suitable preparation of the particular active compound, 1 part by weight of such active compound is mixed with the stated amount of solvent, the stated amount of emulsifier is then added and the resulting concentrate is thereafter diluted with water to the desired final concentration.
(§4) Seeds of the test plants are sown in normal soil and, after 24 hours, watered with the preparation of the given active compound. It is expedient to keep constant the amount of water per unit area. The concentration of the particular active compound in the preparation is of no importance, only the amount of active compound applied per unit area being decisive. After three weeks, the degree of damage to the test plants is determined and characterized by the values 0-5, which have the following meaning:
(§5) The procedure of Example 1 is repeated, and the particular active compounds tested, the amounts applied, and the results obtained can be seen from the following Table 1D: […]

Assay [2] has as its system Cotton. The assay is described as follows: Pre-emergence test, cotton. The method, then:
as §1, §2, §3, §4, §5

The subject of assay [3] is Chenopodium. The assay is described as follows: Pre-emergence test, Chenopodium. As for the experimental part:
as §1, §2, §3, §4, §5

Assay [4] relates to Oats. The assay is described as follows: Post-emergence test, oats. The method, then:
as §1, §2, §3
(§6) Test plants which have a height of about 5--15 cm. are sprayed with the preparation of the given active compound until just dew moist. After three weeks, the degree of damage to the plants is determined and characterized by the values 0-5, which have the following meaning:
(§7) The procedure of Example 2 is repeated, and the particular active compounds tested, and amounts applied, and the results obtained can be seen from the following Table 2E: […]

Assay [5] deals with Cotton. The assay is described as follows: Post-emergence test, cotton. As for the experimental part:
as §1, §2, §3, §6, §7

Assay [6] relates to Chenopodium. In words: Post-emergence test, Chenopodium. As for the experimental part:
as §1, §2, §3, §6, §7

In another assay the test system is Stellaria. The assay is described as follows: Post-emergence test, Stellaria. As for the experimental part: as §1, §2, §3, §6, §7
Assay [7] has as its system Wheat. The assay is described as follows: Pre-emergence test, wheat. As for the experimental part:
as §1, §2, §3, §4, §5

Assay [8] has as its system Wheat. The assay is described as follows: Post-emergence test, wheat. The method, then: as §1, §2, §3, §6, §7
In assay [9] the test system is Echinochloa. In words: Pre-emergence test, Echinochloa. The method, then: as §1, §2, §3, §4, §5
The test system of assay [10] is Echinochloa. The assay is described as follows: Post-emergence test, Echinochloa. The method, then:
as §1, §2, §3, §6, §7

The test system of the next assay is Sinapis. In words: Pre-emergence test, Sinapis. As for the experimental part: as §1, §2, §3, §4, §5

As to `CSc1nnc(C(C)C)c(=O)n1N=Cc1cccc([N+](=O)[O-])c1` [Compound 209, 3-methylthio-4-(3'-nitro-benzylidene-amino)-6-isopropyl-1,2,4-triazine-5-one], the “degree of damage, Oats” value in the assay with Oats [1] (2.5 kg/hectare), with Oats [1] (5 kg/hectare) and in the assay on Oats [4] (2.4 Kg/hectare) was 4-5 each time. The “degree of damage, Cotton” value in the assay on Cotton [2] (1.25 kg/hectare), in the assay on Cotton [2] (2.5 kg/hectare) and with Cotton [2] (5 kg/hectare) was 4-5 throughout. Also, the “degree of damage, Chenopodium” value in the assay on Chenopodium [3] (1.25 kg/hectare) and in the assay on Chenopodium [3] (2.5 kg/hectare) was 4-5 each time.

For `Nn1c(NCc2ccccc2)nnc(-c2ccccc2)c1=O` [Compound 102a, 3-benzylamino-4-amino-6-phenyl-1,2,4-triazine-5-one], the “degree of damage, Cotton” value in the assay with Cotton [5] (10 Kg/hectare) is listed as 2-3.

For `C=CCNc1nnc(C(C)C)c(=O)n1N` [Compound 179, 3-(α-allylamino)-4-amino-6-isopropyl-1,2,4-triazine-5-one], the “degree of damage, Chenopodium” value with Chenopodium [6] (0.6 Kg/hectare) is reported as 4-5. The “degree of damage, Stellaria” value in the assay with Stellaria (1.2 Kg/hectare) is 4-5.

`CSc1nnc(C(C)C)c(=O)n1N=C(C)C` [Compound 194, 3-methylthio-4-(prop-2'-ylidene-amino)-6-isopropyl-1,2,4-triazine-5-one]: the “degree of damage, Wheat” value in the assay with Wheat [7] (1.25 kg/hectare), in the assay on Wheat [8] (1.2 Kg/hectare) and with Wheat [8] (2.4 Kg/hectare) was 4-5 throughout. Also, the “degree of damage, Cotton” value with Cotton [2] (1.25 kg/hectare) and with Cotton [5] (0.6 Kg/hectare) was 4-5 in each case.

As for `CSc1nnc(C2CCCCC2)c(=O)n1NC(O)C(Cl)(Cl)Cl` (stereo not drawn) [Compound 193, 3-methylthio-4-(β-trichloro-α-hydroxy-ethyl)-amino-6-cyclohexyl-1,2,4-triazine-5-one], the “degree of damage, Oats” value in the assay with Oats [1] (2.5 kg/hectare) and in the assay on Oats [4] (1.2 Kg/hectare) was 4-5 throughout. For the same molecule, the “degree of damage, Wheat” value in the assay on Wheat [7] (5 kg/hectare) and with Wheat [8] (2.4 Kg/hectare) was 4-5 in each case. Also, the “degree of damage, Chenopodium” value in the assay with Chenopodium [3] (2.5 kg/hectare) was 4-5.

As to `CSc1nnc(C2CCCCC2)c(=O)n1N=Cc1ccco1` [Compound 226, 3-methylthio-4-(furfur-2'-ylidene-amino)-6-cyclohexyl-1,2,4-triazine-5-one], the “degree of damage, Oats” value in the assay with Oats [1] (5 kg/hectare) and with Oats [4] (2.4 Kg/hectare) was 4-5 throughout. Also, the “degree of damage, Cotton” value with Cotton [2] (5 kg/hectare) is recorded as 3-4; in the assay on Cotton [5] (2.4 Kg/hectare) it was 4-5. Besides, in the assay with Echinochloa [9] (2.5 kg/hectare), the “degree of damage, Echinochloa” value was 4-5.

For `CSc1nnc(C2CCCCC2)c(=O)n1N=CC(C)C` [Compound 229, 3-methylthio-4-(isobutylidene-amino)-6-cyclohexyl-1,2,4-triazine-5-one], in the assay on Oats [1] (2.5 kg/hectare), the “degree of damage, Oats” value is reported as 4-5. Besides, the “degree of damage, Wheat” value in the assay with Wheat [7] (5 kg/hectare) was 4-5. In the assay with Cotton [2] (5 kg/hectare), the “degree of damage, Cotton” value is 4-5. The “degree of damage, Echinochloa” value with Echinochloa [9] (1.25 kg/hectare) is 4-5.

`CSc1nnc(C2CCCCC2)c(=O)n1N=Cc1ccccc1` [Compound 225, 3-methylthio-4-(benzylidene-amino)-6-cyclohexyl-1,2,4-triazine-5-one]: in the assay on Cotton [2] (2.5 kg/hectare), the “degree of damage, Cotton” value is listed as 4-5. Also, the “degree of damage, Echinochloa” value in the assay on Echinochloa [9] (1.25 kg/hectare) and in the assay with Echinochloa [10] (0.6 Kg/hectare) was 4-5 in each case. Also, the “degree of damage, Oats” value in the assay on Oats [4] (2.4 Kg/hectare) is on record as 4-5. Moreover, the “degree of damage, Wheat” value with Wheat [8] (0.6 Kg/hectare) is 3-4.

Consider `COc1ccc(C=Nn2c(SC)nnc(C(C)C)c2=O)cc1` [Compound 207, 3-methylthio-4-(4'-methoxy-benzylidene-amino)-6-isopropyl-1,2,4-triazine-5-one], for which the “degree of damage, Oats” value in the assay on Oats [1] (5 kg/hectare) and in the assay with Oats [4] (2.4 Kg/hectare) was 4-5 in each case. Further, the “degree of damage, Wheat” value is given as 4-5 with Wheat [7] (5 kg/hectare), 3-4 with Wheat [8] (1.2 Kg/hectare) and 3-4 with Wheat [8] (2.4 Kg/hectare). Also, the “degree of damage, Cotton” value with Cotton [2] (5 kg/hectare) and with Cotton [5] (0.6 Kg/hectare) was 4-5 each time.

Consider `CNc1nnc(C(C)(C)C)c(=O)n1N=Cc1ccc(Cl)cc1` [Compound 233, 3-methylamino-4-(4'-chloro-benzylidene-amino)-6-tert.-butyl-1,2,4-triazine-5-one], for which, in the assay on Echinochloa [9] (5 kg/hectare), the “degree of damage, Echinochloa” value is 4-5. The “degree of damage, Oats” value in the assay with Oats [4] (1.2 Kg/hectare) and in the assay on Oats [4] (2.4 Kg/hectare) was 4-5 each time. In addition, the “degree of damage, Wheat” value in the assay with Wheat [8] (0.6 Kg/hectare) and with Wheat [8] (1.2 Kg/hectare) was 4-5 each time. In addition, the “degree of damage, Cotton” value in the assay on Cotton [5] (2.4 Kg/hectare) was 4-5.

For the molecule `CSc1nnc(C2CCCCC2)c(=O)n1N=C1CCCCC1` [Compound 227, 3-methylthio-4-(cyclohexylidene-amino)-6-cyclohexyl-1,2,4-triazine-5-one], the “degree of damage, Wheat” value in the assay with Wheat [7] (2.5 kg/hectare), with Wheat [7] (5 kg/hectare) and with Wheat [8] (2.4 Kg/hectare) was 4-5 throughout. The “degree of damage, Sinapis” value with Sinapis (1.25 kg/hectare) is listed as 4-5. The “degree of damage, Echinochloa” value in the assay with Echinochloa [9] (1.25 kg/hectare) is listed as 4-5. Moreover, the “degree of damage, Chenopodium” value in the assay on Chenopodium [6] (2.4 Kg/hectare) is 4-5. In addition, the “degree of damage, Stellaria” value in the assay with Stellaria (2.4 Kg/hectare) is recorded as 4-5.

In the case of `CSc1nnc(C2CCCCO2)c(=O)n1N` (stereo not shown) [Compound 163, 3-methylthio-4-amino-6-(tetrahydropyran-2'-yl)-1,2,4-triazine-5-one], the “degree of damage, Wheat” value in the assay on Wheat [8] (0.6 Kg/hectare) was 3-4; in the assay on Wheat [8] (1.2 Kg/hectare) it was 4-5. The “degree of damage, Chenopodium” value in the assay with Chenopodium [6] (0.6 Kg/hectare) is listed as 4-5. Also, the “degree of damage, Echinochloa” value in the assay with Echinochloa [10] (2.4 Kg/hectare) is listed as 4-5.

Consider `CCCCNc1nnc(-c2ccccc2)c(=O)n1N` [Compound 100a, 3-n-butylamino-4-amino-6-phenyl-1,2,4-triazine-5-one], for which the “degree of damage, Wheat” value with Wheat [8] (10 Kg/hectare) is 2-3. Besides, the “degree of damage, Cotton” value in the assay with Cotton [5] (10 Kg/hectare) is 2-3. For the same molecule, in the assay on Echinochloa [10] (10 Kg/hectare), the “degree of damage, Echinochloa” value is recorded as 2-3.

Regarding `CSc1nnc(C(C)C)c(=O)n1N=CC(C)C` [Compound 214, 3-methylthio-4-(isobutylidene-amino)-6-isopropyl-1,2,4-triazine-5-one], in the assay with Wheat [7] (2.5 kg/hectare), the “degree of damage, Wheat” value is given as 4-5. Moreover, the “degree of damage, Oats” value in the assay on Oats [4] (0.6 Kg/hectare) is on record as 4-5. The “degree of damage, Cotton” value with Cotton [5] (0.6 Kg/hectare) and in the assay with Cotton [5] (1.2 Kg/hectare) was 4-5 each time.

With `CSc1nnc(C(C)C)c(=O)n1N=Cc1ccc(C)cc1` [Compound 213, 3-methylthio-4-(4'-methyl-benzylidene-amino)-6-isopropyl-1,2,4-triazine-5-one], the “degree of damage, Oats” value in the assay with Oats [1] (1.25 kg/hectare) is recorded as 4-5; with Oats [1] (2.5 kg/hectare), 4-5; in the assay on Oats [4] (1.2 Kg/hectare), 3-4; with Oats [4] (2.4 Kg/hectare), 4-5. Further, the “degree of damage, Cotton” value with Cotton [2] (2.5 kg/hectare) and with Cotton [2] (5 kg/hectare) was 4-5 each time. The “degree of damage, Echinochloa” value with Echinochloa [9] (1.25 kg/hectare) and with Echinochloa [10] (0.6 Kg/hectare) was 4-5 in each case. Besides, the figures for the “degree of damage, Wheat” value in the assay on Wheat [8] (0.6 Kg/hectare) and with Wheat [8] (1.2 Kg/hectare) were 2-3 and 3-4, respectively. Moreover, in the assay on Stellaria (0.6 Kg/hectare), the “degree of damage, Stellaria” value is 4-5.

`CNc1nnc(C(C)(C)C)c(=O)n1N=Cc1ccccc1` [Compound 230, 3-methylamino-4-(benzylidene-amino)-6-tert.-butyl-1,2,4-triazine-5-one]: the “degree of damage, Oats” value in the assay with Oats [1] (5 kg/hectare) and with Oats [4] (2.4 Kg/hectare) was 4-5 throughout. Also, in the assay with Wheat [7] (5 kg/hectare), the “degree of damage, Wheat” value is listed as 4-5. Also, the “degree of damage, Cotton” value in the assay with Cotton [2] (5 kg/hectare) is listed as 4-5. For the same molecule, in the assay on Sinapis (2.5 kg/hectare), the “degree of damage, Sinapis” value was 4-5. Also, the “degree of damage, Chenopodium” value in the assay on Chenopodium [3] (2.5 kg/hectare) was 4-5. Moreover, the “degree of damage, Echinochloa” value with Echinochloa [9] (2.5 kg/hectare), in the assay with Echinochloa [9] (5 kg/hectare), with Echinochloa [10] (1.2 Kg/hectare) and with Echinochloa [10] (2.4 Kg/hectare) was 4-5 in each case. Also, the “degree of damage, Stellaria” value in the assay on Stellaria (0.6 Kg/hectare) was 4-5.
